Tested on: MV-4-11 cells
Experiment: Gene expression microarray analysis (Affymetrix PrimeView) and GSEA
Type: cell-based, human
Set-up: RFU PODN (11730768_x_at) / Fold change /veh PODN (11730768_x_at) / RFU LINC00158 (11744669_a_at) / Fold change /veh LINC00158 (11744669_a_at) / RFU DUSP10 (11751237_a_at) / Fold change /veh DUSP10 (11751237_a_at) / RFU ID3 (11757404_x_at) / Fold change /veh ID3 (11757404_x_at) / RFU PLEKHG5 (11737974_s_at) / Fold change /veh PLEKHG5 (11737974_s_at) / RFU LRRC4B (11730491_at) / Fold change /veh LRRC4B (11730491_at) / RFU GIMAP4 (11747438_a_at) / Fold change /veh GIMAP4 (11747438_a_at) / RFU KRT8 (11758183_x_at) / Fold change /veh KRT8 (11758183_x_at) / RFU CNN1 (11734310_a_at) / Fold change /veh CNN1 (11734310_a_at) / RFU VPS37D (11726825_at) / Fold change /veh VPS37D (11726825_at) / RFU C10orf10 (11716522_x_at) / Fold change /veh C10orf10 (11716522_x_at) / RFU KIR2DL2 /// KIR2DL4 /// KIR2DL5A /// KIR2DL5B /// KIR2DS1 /// KIR2DS2 /// KIR2DS3 /// KIR2DS4 /// KIR3DL3 /// KIR3DL3 /// KIR3DS1 (11738374_at) / Fold change /veh KIR2DL2 /// KIR2DL4 /// KIR2DL5A /// KIR2DL5B /// KIR2DS1 /// KIR2DS2 /// KIR2DS3 /// KIR2DS4 /// KIR3DL3 /// KIR3DL3 /// KIR3DS1 (11738374_at) / RFU C1QL1 (11718748_at) / Fold change /veh C1QL1 (11718748_at) / RFU TMPRSS4 (11747572_a_at) / Fold change /veh TMPRSS4 (11747572_a_at) / RFU HAMP (11756126_x_at) / Fold change /veh HAMP (11756126_x_at) / RFU RNFT2 (11725882_a_at) / Fold change /veh RNFT2 (11725882_a_at) / RFU NR4A2 (11747474_a_at) / Fold change /veh NR4A2 (11747474_a_at) / RFU ABCC12 (11746883_a_at) / Fold change /veh ABCC12 (11746883_a_at) / RFU TMEM136 (11760407_x_at) / Fold change /veh TMEM136 (11760407_x_at) / RFU CLDN22 /// WWC2 (11732394_at) / Fold change /veh CLDN22 /// WWC2 (11732394_at) / RFU HLA-DPB1 (11760878_x_at) / Fold change /veh HLA-DPB1 (11760878_x_at) / RFU SPINT1 (11716480_a_at) / Fold change /veh SPINT1 (11716480_a_at) / RFU GAP43 (11754022_s_at) / Fold change /veh GAP43 (11754022_s_at) / RFU A4GNT (11735810_at) / Fold change /veh A4GNT (11735810_at) / RFU PRB3 (11715151_x_at) / Fold change /veh PRB3 (11715151_x_at) / RFU TUBB4B (11761932_at) / Fold change /veh TUBB4B (11761932_at) / RFU CAPN14 (11732068_a_at) / Fold change /veh CAPN14 (11732068_a_at) / RFU TMCC2 (11721928_a_at) / Fold change /veh TMCC2 (11721928_a_at) / RFU IRGQ (11745062_a_at) / Fold change /veh IRGQ (11745062_a_at) / RFU FAM174B (11720279_a_at) / Fold change /veh FAM174B (11720279_a_at) / RFU TMPRSS4 (11748680_a_at) / Fold change /veh TMPRSS4 (11748680_a_at) / RFU FAM212B (11763350_a_at) / Fold change /veh FAM212B (11763350_a_at) / RFU PLEKHG5 (11743358_a_at) / Fold change /veh PLEKHG5 (11743358_a_at) / RFU ZSCAN30 (11745921_a_at) / Fold change /veh ZSCAN30 (11745921_a_at) / RFU CMKLR1 (11741424_a_at) / Fold change /veh CMKLR1 (11741424_a_at) / RFU LOC101060620 /// MAPK8IP1 (11723275_at) / Fold change /veh LOC101060620 /// MAPK8IP1 (11723275_at) / RFU SPTSSB (11747773_x_at) / Fold change /veh SPTSSB (11747773_x_at) / RFU PRSS12 (11739890_at) / Fold change /veh PRSS12 (11739890_at) / RFU BIN1 (11741810_x_at) / Fold change /veh BIN1 (11741810_x_at) / RFU WNT11 (11732464_a_at) / Fold change /veh WNT11 (11732464_a_at) / RFU C10orf10 (11716521_a_at) / Fold change /veh C10orf10 (11716521_a_at) / RFU C5orf56 (11738089_at) / Fold change /veh C5orf56 (11738089_at) / RFU CYB561 (11721691_x_at) / Fold change /veh CYB561 (11721691_x_at) / RFU ANKRD19P (11752326_a_at) / Fold change /veh ANKRD19P (11752326_a_at) / RFU OR2T12 /// OR2T33 /// OR2T8 (11738714_s_at) / Fold change /veh OR2T12 /// OR2T33 /// OR2T8 (11738714_s_at) / RFU VCAN (11748164_a_at) / Fold change /veh VCAN (11748164_a_at) / RFU JSRP1 (11732532_at) / Fold change /veh JSRP1 (11732532_at) / RFU KRTAP10-11 (11738290_x_at) / Fold change /veh KRTAP10-11 (11738290_x_at) / RFU MYO3A (11730013_a_at) / Fold change /veh MYO3A (11730013_a_at) / RFU EBF3 (11725865_a_at) / Fold change /veh EBF3 (11725865_a_at) / RFU CAMK2N1 (11719241_x_at) / Fold change /veh CAMK2N1 (11719241_x_at) / RFU C5orf56 (11738088_a_at) / Fold change /veh C5orf56 (11738088_a_at) / RFU OLFML3 (11715873_a_at) / Fold change /veh OLFML3 (11715873_a_at) / RFU LOC100653217 /// NTM (11731650_a_at) / Fold change /veh LOC100653217 /// NTM (11731650_a_at) / RFU MAPK11 (11762145_a_at) / Fold change /veh MAPK11 (11762145_a_at) / RFU FIZ1 (11724087_x_at) / Fold change /veh FIZ1 (11724087_x_at) / RFU OASL (11726364_x_at) / Fold change /veh OASL (11726364_x_at) / RFU SOX15 (11748057_x_at) / Fold change /veh SOX15 (11748057_x_at) / RFU CD79A (11719716_a_at) / Fold change /veh CD79A (11719716_a_at) / RFU HIST1H1D (11736915_at) / Fold change /veh HIST1H1D (11736915_at) / RFU CASKIN2 (11723855_a_at) / Fold change /veh CASKIN2 (11723855_a_at) / RFU LOC730098 (11760151_x_at) / Fold change /veh LOC730098 (11760151_x_at) / RFU OR4N2 (11742367_at) / Fold change /veh OR4N2 (11742367_at) / RFU PRRT2 (11749266_a_at) / Fold change /veh PRRT2 (11749266_a_at) / RFU SNX32 (11753110_a_at) / Fold change /veh SNX32 (11753110_a_at) / RFU CDHR5 (11726645_a_at) / Fold change /veh CDHR5 (11726645_a_at) / RFU RCAN1 (11760418_a_at) / Fold change /veh RCAN1 (11760418_a_at) / RFU FAM167A (11723789_a_at) / Fold change /veh FAM167A (11723789_a_at) / RFU FAM26E (11764081_at) / Fold change /veh FAM26E (11764081_at) / RFU ISYNA1 (11749810_s_at) / Fold change /veh ISYNA1 (11749810_s_at) / RFU ACY1 (11761880_at) / Fold change /veh ACY1 (11761880_at) / RFU 11764098_at / Fold change /veh 11764098_at / RFU SAMD14 (11745864_x_at) / Fold change /veh SAMD14 (11745864_x_at) / RFU NPB (11741838_a_at) / Fold change /veh NPB (11741838_a_at) / RFU TMPRSS6 (11731388_a_at) / Fold change /veh TMPRSS6 (11731388_a_at) / RFU KRTAP10-2 (11738614_at) / Fold change /veh KRTAP10-2 (11738614_at) / RFU ARHGAP8 /// PRR5-ARHGAP8 (11727945_x_at) / Fold change /veh ARHGAP8 /// PRR5-ARHGAP8 (11727945_x_at) / RFU KRTAP5-7 /// NADSYN1 (11734609_at) / Fold change /veh KRTAP5-7 /// NADSYN1 (11734609_at) / RFU RASL12 (11751679_a_at) / Fold change /veh RASL12 (11751679_a_at) / RFU CDKN2B (11736163_a_at) / Fold change /veh CDKN2B (11736163_a_at) / RFU PRF1 (11729649_at) / Fold change /veh PRF1 (11729649_at) / RFU, ZNF638 /// ZNF638-IT1 / Fold change vs veh, ZNF638 /// ZNF638-IT1 / RFU, PANK3 / Fold change vs veh, PANK3 / RFU, SH3YL1 / Fold change vs veh, SH3YL1 / RFU, ZEB2 / Fold change vs veh, ZEB2 / RFU, NRIP1 / Fold change vs veh, NRIP1 / RFU, PTTG1IP / Fold change vs veh, PTTG1IP / RFU, CAPN2 / Fold change vs veh, CAPN2 / RFU, MED14 / Fold change vs veh, MED14 / RFU, SNORA58 / Fold change vs veh, SNORA58 / RFU, C1orf63 / Fold change vs veh, C1orf63 / RFU, LRRFIP1 / Fold change vs veh, LRRFIP1 / RFU, NDUFAF7 / Fold change vs veh, NDUFAF7 / RFU, SLC12A2 / Fold change vs veh, SLC12A2 / RFU, IBTK / Fold change vs veh, IBTK / RFU, ESF1 / Fold change vs veh, ESF1 / Fold change vs veh, TMEM50B / RFU, TAOK1 / Fold change vs veh, TAOK1 / RFU, ACBD3 / Fold change vs veh, ACBD3 / RFU, TMA16 / Fold change vs veh, TMA16 / RFU, RWDD3 / Fold change vs veh, RWDD3 / RFU, BCAT1 / Fold change vs veh, BCAT1 / RFU, EDEM3 / Fold change vs veh, EDEM3 / RFU, TMEM33 / Fold change vs veh, TMEM33 / RFU, WDR75 / Fold change vs veh, WDR75 / RFU, AHCTF1 / Fold change vs veh, AHCTF1 / RFU, TFRC / Fold change vs veh, TFRC / RFU, ZDHHC17 / Fold change vs veh, ZDHHC17 / RFU, NOM1 / Fold change vs veh, NOM1 / RFU, ARL8B / Fold change vs veh, ARL8B / RFU, ZBTB11 / Fold change vs veh, ZBTB11 / RFU, TAMM41 / Fold change vs veh, TAMM41 / RFU, KIAA1704 /// LOC100996395 / Fold change vs veh, KIAA1704 /// LOC100996395 / RFU, ING1 / Fold change vs veh, ING1 / RFU, TRMT61B / Fold change vs veh, TRMT61B / RFU, FUBP3 / Fold change vs veh, FUBP3 / RFU, TP53 / Fold change vs veh, TP53 / RFU, TNKS2 / Fold change vs veh, TNKS2 / RFU, ZFP14 / Fold change vs veh, ZFP14 / RFU, ACTR2 / Fold change vs veh, ACTR2 / RFU, PPP3R1 / Fold change vs veh, PPP3R1 / RFU, PIK3R1 / Fold change vs veh, PIK3R1 / RFU, HNRNPA1 / Fold change vs veh, HNRNPA1 / RFU, RNF170 / Fold change vs veh, RNF170 / RFU, ZNF28 / Fold change vs veh, ZNF28 / RFU, RNGTT / Fold change vs veh, RNGTT / RFU, OGT / Fold change vs veh, OGT / RFU, BRD1 / Fold change vs veh, BRD1 / RFU, MARS / Fold change vs veh, MARS / RFU, ZNF655 / Fold change vs veh, ZNF655 / RFU, FAHD1 / Fold change vs veh, FAHD1 / RFU, BDP1 / Fold change vs veh, BDP1 / RFU, LRRCC1 / Fold change vs veh, LRRCC1 / RFU, ARID1A / Fold change vs veh, ARID1A / RFU, ZNF146 / Fold change vs veh, ZNF146 / RFU, ZNF330 / Fold change vs veh, ZNF330 / RFU, GPN3 / Fold change vs veh, GPN3 / RFU, C9orf123 / Fold change vs veh, C9orf123 / RFU, N4BP2L2 / Fold change vs veh, N4BP2L2 / RFU, ARFIP1 / Fold change vs veh, ARFIP1 / RFU, FAM179B / Fold change vs veh, FAM179B / RFU, BCL10 / Fold change vs veh, BCL10 / RFU, UHRF1BP1L / Fold change vs veh, UHRF1BP1L / RFU, BET1 / Fold change vs veh, BET1 / RFU, CNOT2 / Fold change vs veh, CNOT2 / RFU, ZNF268 / Fold change vs veh, ZNF268 / Fold change vs veh, ZNF507 / RFU, DGCR2 / Fold change vs veh, DGCR2 / RFU, WDSUB1 / Fold change vs veh, WDSUB1 / Fold change vs veh, HSP90B1 /// MIR3652 / RFU, ADSS / Fold change vs veh, ADSS / RFU, GK / Fold change vs veh, GK / RFU, ZNF148 / Fold change vs veh, ZNF148 / RFU, TAF9 / Fold change vs veh, TAF9 / RFU, SLC1A5 / Fold change vs veh, SLC1A5 / RFU, SLMO2 / Fold change vs veh, SLMO2 / RFU, ABCC4 / Fold change vs veh, ABCC4 / RFU, LOC101060439 /// RAP1B / Fold change vs veh, LOC101060439 /// RAP1B / RFU, RFX7 / Fold change vs veh, RFX7 / RFU, GTPBP10 / Fold change vs veh, GTPBP10 / RFU, CNEP1R1 / Fold change vs veh, CNEP1R1 / RFU, BIVM-ERCC5 /// ERCC5 / Fold change vs veh, BIVM-ERCC5 /// ERCC5 / RFU, ILF3 / Fold change vs veh, ILF3 / RFU 11762660_at / Fold change /veh 11762660_at / RFU VCAN (11757783_s_at) / Fold change /veh VCAN (11757783_s_at) / RFU DDX43 (11728927_at) / Fold change /veh DDX43 (11728927_at) / RFU KRT8 (11758188_x_at) / Fold change /veh KRT8 (11758188_x_at) / RFU NKD1 (11759106_at) / Fold change /veh NKD1 (11759106_at) / RFU SRD5A1 (11742802_a_at) / Fold change /veh SRD5A1 (11742802_a_at) / RFU TPSAB1 /// TPSB2 (11721975_s_at) / Fold change /veh TPSAB1 /// TPSB2 (11721975_s_at) / RFU GSTM3 (11746129_a_at) / Fold change /veh GSTM3 (11746129_a_at) / RFU IL23R (11737362_x_at) / Fold change /veh IL23R (11737362_x_at) / RFU TMEM51 (11727254_a_at) / Fold change /veh TMEM51 (11727254_a_at) / RFU PIWIL2 (11732686_x_at) / Fold change /veh PIWIL2 (11732686_x_at) / RFU ORM1 (11744905_x_at) / Fold change /veh ORM1 (11744905_x_at) / RFU CCDC152 (11743942_at) / Fold change /veh CCDC152 (11743942_at) / RFU ECM1 (11717891_a_at) / Fold change /veh ECM1 (11717891_a_at) / RFU IL23R (11748794_a_at) / Fold change /veh IL23R (11748794_a_at) / RFU TNFAIP8L3 (11732012_x_at) / Fold change /veh TNFAIP8L3 (11732012_x_at) / RFU MBOAT4 (11741988_at) / Fold change /veh MBOAT4 (11741988_at) / RFU 11764193_at / Fold change /veh 11764193_at / RFU TMEM53 (11763286_at) / Fold change /veh TMEM53 (11763286_at) / RFU MAGEB2 (11727129_at) / Fold change /veh MAGEB2 (11727129_at) / RFU TMEM200A (11744735_a_at) / Fold change /veh TMEM200A (11744735_a_at) / RFU CCDC152 (11751479_a_at) / Fold change /veh CCDC152 (11751479_a_at) / RFU FAM211A (11726209_a_at) / Fold change /veh FAM211A (11726209_a_at) / RFU RGS16 (11746705_a_at) / Fold change /veh RGS16 (11746705_a_at) / RFU VCAN (11755009_s_at) / Fold change /veh VCAN (11755009_s_at) / RFU RHOB (11743442_s_at) / Fold change /veh RHOB (11743442_s_at) / RFU RGS16 (11720943_a_at) / Fold change /veh RGS16 (11720943_a_at) / RFU RGS16 (11720944_at) / Fold change /veh RGS16 (11720944_at) / RFU, VPS4B / Fold change vs veh, VPS4B / RFU, CREB1 / Fold change vs veh, CREB1 / RFU, DNAJC13 / Fold change vs veh, DNAJC13 / RFU, GNAQ / Fold change vs veh, GNAQ / RFU, CDK5R1 / Fold change vs veh, CDK5R1 / RFU, ZRANB3 / Fold change vs veh, ZRANB3 / RFU, CUL4A / Fold change vs veh, CUL4A / RFU, CCNY / Fold change vs veh, CCNY / RFU, UFL1 / Fold change vs veh, UFL1 / RFU, COG3 / Fold change vs veh, COG3 / RFU, DIAPH2 / Fold change vs veh, DIAPH2 / RFU, SKA2 / Fold change vs veh, SKA2 / RFU, AFF3 / Fold change vs veh, AFF3 / RFU, LMF1 / Fold change vs veh, LMF1 / RFU, IPO11 / Fold change vs veh, IPO11 / RFU, DFFB / Fold change vs veh, DFFB / RFU, FOXP1 / Fold change vs veh, FOXP1 / RFU, CARD8 / Fold change vs veh, CARD8 / RFU, STRN3 / Fold change vs veh, STRN3 / RFU, ADK / Fold change vs veh, ADK / RFU, RASSF2 / Fold change vs veh, RASSF2 / RFU, WIPF1 / Fold change vs veh, WIPF1 / RFU, LARP1B / Fold change vs veh, LARP1B / RFU, RASA1 / Fold change vs veh, RASA1 / RFU, RB1 / Fold change vs veh, RB1 / RFU, PPFIA1 / Fold change vs veh, PPFIA1 / RFU, MAT2A / Fold change vs veh, MAT2A / RFU, CCT5 / Fold change vs veh, CCT5 / RFU, WDR92 / Fold change vs veh, WDR92 / RFU, CUX1 / Fold change vs veh, CUX1 / RFU, TTC7A / Fold change vs veh, TTC7A / RFU, TMEM135 / Fold change vs veh, TMEM135 / RFU, DEPTOR / Fold change vs veh, DEPTOR / RFU, CPM / Fold change vs veh, CPM / RFU, DNAJB6 / Fold change vs veh, DNAJB6 / RFU, CACNA2D3 / Fold change vs veh, CACNA2D3 / RFU, DTX4 / Fold change vs veh, DTX4 / RFU, TFCP2 / Fold change vs veh, TFCP2 / RFU, GMCL1 /// GMCL1P1 / Fold change vs veh, GMCL1 /// GMCL1P1 / RFU, AEBP2 / Fold change vs veh, AEBP2 / RFU, SNHG1 /// SNORD22 /// SNORD25 /// SNORD26 /// SNORD27 /// SNORD28 /// SNORD29 /// SNORD31 / Fold change vs veh, SNHG1 /// SNORD22 /// SNORD25 /// SNORD26 /// SNORD27 /// SNORD28 /// SNORD29 /// SNORD31 / Fold change (Aza/veh), C12orf56 (ProbeSet 11735607_a_at) / Fold change (ACY-1035/veh), C12orf56 (ProbeSet 11735607_a_at) / Fold change (Aza/veh), FGFR1OP (ProbeSet 11751329_s_at) / Fold change (ACY-1035/veh), FGFR1OP (ProbeSet 11751329_s_at) / Fold change (Aza/veh), VPS36 (ProbeSet 11739960_a_at) / Fold change (ACY-1035/veh), VPS36 (ProbeSet 11739960_a_at) / RFU SYPL1 (11715823_x_at) / Fold change /veh SYPL1 (11715823_x_at) / RFU IGFBP7 (11715501_s_at) / Fold change /veh IGFBP7 (11715501_s_at) / RFU REEP3 (11722064_at) / Fold change /veh REEP3 (11722064_at) / RFU IGLL1 (11728026_x_at) / Fold change /veh IGLL1 (11728026_x_at): dose or concentration left out as unconfirmed
Conditions: MV-4-11 cells, 48 hours

Compound: Nc1ncn([C@@H]2O[C@H](CO)[C@@H](O)[C@H]2O)c(=O)n1 [azacitidine]
- Fold change /veh LOC730098 (11760151_x_at): 1.03

Source: paper PMC5218480 (PLoS ONE, 2017)
